# Results taken from patent US20250289807A1, “Inhibitors of ROCK2” (Graviton Bioscience BV, priority 2022, published 2025).
# What was measured:
# [1] = test system: pCofilin in human CD4+ T cells; test: pCofilin in human CD4+ T cells (Western Blot); type: cell-based; details: stimulated 2 hours, FIG. 4
# Experimental: (§1) In these studies, peripheral blood CD4^+ T cells were treated with indicated doses of inhibitors and then stimulated by anti-CD3/28 mAbs, IL-1β (50 ng/mL) and TGF-β (5 ng/mL) for 2 hours. The cell lysates were prepared and analyzed by Western Blot. One representative of three different experiments is shown.
# [2] = Kinetic solubility; type: physicochemical; details: kinetic from dmso stock
# [3] = test system: human lung fibroblast MRC-5 cells; test: TGF-β-induced pro-fibrogenic gene expression in MRC-5 fibroblasts (RT-PCR); type: cell-based; details: MRC-5, TGF-β1 2.5 ng/mL, 48 hours, FIG. 5
# Experimental: (§2) ROCKs are activated by small GTPase Rho in response to a variety of profibrotic signals and regulate cytoskeletal dynamics, activation of different down-stream intracellular targets and expression of key profibrotic genes, such as fibronectin, smooth muscle actin (α-SMA) and collagen 3 (Col3A1).
# (§3) In these studies, human lung fibroblast MRC-5 cells were acquired from American Type Culture Collection (ATCC) and cultured in MEM supplemented with 10% fetal bovine serum. The cells were seeded in 24-well cell culture plates at 50,000/mL/well. On the following day, the cells were starved in MEM containing 0.5% FBS for overnight. […] Cellular mRNA was isolated and mRNA expression of indicated genes (fibronectin, αSMA and col3A) was analyzed by RT-PCR (FIG. 5). Secreted pro-collagen 1a (Col1A1) in supernatants was measured by ELISA (FIG. 6).
# [4] = test system: Human subcutaneous adipocytes; test: Adipogenesis in primary human adipocytes (Oil Red staining); type: cell-based; details: adipogenic cocktail, 10 days, Oil Red absorbance, FIG. 7
# Experimental: Adipogenesis is a multi-step complex process, progressing from precursor stem cells to adipocytes that synthesize and store fat. […] ROCKs have been implicated in regulation of adipocyte differentiation, however the isoform-specific contribution to adipogenesis and other metabolic pathways is not well characterized. […] In this study, Human subcutaneous adipocytes were grown to confluence before induction to differentiation by adipogenic cocktail (0.1 μM dexamethasone, 1 μM insulin, 200 μM indomethacin, 250 μM isobutyl methylxanthine (IBMX)) in the presence of indicated concentrations of Ex. 1 or Ex. 2 for 10 days. Differentiated cells were stained by Oil Red which was extracted by isopropanol and measured by absorbance at 492 nm.
# [5] = test system: STAT3 phosphorylation in human CD4+ T cells; test: STAT3 phosphorylation in Th17-skewed human CD4+ T cells (Western Blot); type: cell-based; details: stimulated 2 hours, FIG. 3
# Experimental: as §1
# [6] = test system: IL-17 secretion in human CD4+ T cells; test: IL-17 secretion in Th17-skewed human CD4+ T cells (ELISA); type: cell-based; details: anti-CD3/28 mAbs, IL-1β (50 ng/mL) and TGF-β (5 ng/mL), 48 hours
# Experimental: In this study, peripheral blood CD4^+ T cells were treated with the indicated doses of the ROCK2 inhibitors and then stimulated by anti-CD3/28 mAbs, IL-1β (50 ng/mL) and TGF-β (5 ng/mL) for 48 hours. The supernatants were analyzed for IL-17 by ELISA. One representative of three different experiments is shown.
# [7] = test system: human lung fibroblast MRC-5 cells; test: Col1A protein secretion in MRC-5 supernatants (ELISA); type: cell-based; details: MRC-5, TGF-β1 2.5 ng/mL, 48 hours, FIG. 6
# Experimental: as §2, §3
# [8] = target: ROCK1 (Homo sapiens (Human), UniProt Q13464); test: ADP-Glo kinase assay, ROCK1; type: biochemical; details: 10 μM ATP, 170 μM S6K substrate, 120 min
# Sequence of ROCK1 (Q13464 whole entry): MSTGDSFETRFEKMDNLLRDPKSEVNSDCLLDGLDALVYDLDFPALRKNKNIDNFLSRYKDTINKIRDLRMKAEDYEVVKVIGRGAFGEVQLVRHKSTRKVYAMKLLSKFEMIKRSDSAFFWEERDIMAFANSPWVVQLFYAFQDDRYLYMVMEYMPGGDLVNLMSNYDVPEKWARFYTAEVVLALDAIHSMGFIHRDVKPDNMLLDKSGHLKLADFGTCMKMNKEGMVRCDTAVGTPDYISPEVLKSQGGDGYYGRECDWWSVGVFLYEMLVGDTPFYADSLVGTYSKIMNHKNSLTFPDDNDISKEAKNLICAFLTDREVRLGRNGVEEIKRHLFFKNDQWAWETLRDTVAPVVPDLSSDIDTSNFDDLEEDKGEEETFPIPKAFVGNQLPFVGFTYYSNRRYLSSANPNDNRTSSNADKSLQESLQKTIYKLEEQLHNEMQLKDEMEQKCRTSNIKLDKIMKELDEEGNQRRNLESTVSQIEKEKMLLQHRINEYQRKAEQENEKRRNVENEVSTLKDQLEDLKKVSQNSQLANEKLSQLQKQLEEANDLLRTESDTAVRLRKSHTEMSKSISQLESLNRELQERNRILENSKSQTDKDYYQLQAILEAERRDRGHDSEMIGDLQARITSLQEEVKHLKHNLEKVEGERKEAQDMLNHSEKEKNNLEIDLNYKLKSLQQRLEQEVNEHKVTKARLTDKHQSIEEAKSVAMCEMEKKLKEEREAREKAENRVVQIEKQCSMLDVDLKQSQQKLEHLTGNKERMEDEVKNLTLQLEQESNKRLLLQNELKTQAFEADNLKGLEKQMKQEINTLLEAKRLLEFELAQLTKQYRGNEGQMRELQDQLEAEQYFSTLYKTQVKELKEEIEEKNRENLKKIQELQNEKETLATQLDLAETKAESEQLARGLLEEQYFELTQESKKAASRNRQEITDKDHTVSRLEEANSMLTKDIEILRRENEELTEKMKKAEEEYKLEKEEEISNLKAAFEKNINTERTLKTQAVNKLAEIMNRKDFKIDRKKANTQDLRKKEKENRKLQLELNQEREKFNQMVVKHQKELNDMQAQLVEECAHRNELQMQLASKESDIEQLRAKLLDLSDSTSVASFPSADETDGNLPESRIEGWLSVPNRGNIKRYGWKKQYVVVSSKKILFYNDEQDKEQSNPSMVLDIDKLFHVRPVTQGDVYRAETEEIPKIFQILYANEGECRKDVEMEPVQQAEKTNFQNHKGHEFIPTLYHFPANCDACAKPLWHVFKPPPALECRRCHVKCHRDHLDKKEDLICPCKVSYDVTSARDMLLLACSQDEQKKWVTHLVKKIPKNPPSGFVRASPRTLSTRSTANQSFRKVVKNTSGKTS
# Experimental: (§4) ADP-Glo kinase assay (Promega). The ADP-Glo™ Kinase Assay is a luminescent ADP detection assay that allows measurement of kinase activity based on the amount of ADP produced during a kinase reaction. The kinase reaction is performed in the presence of ATP, S6K substrate ([…]) and the ROCK kinase in the appropriate Kinase Reaction Buffer (1×). Upon termination of the reaction, the unconsumed ATP is depleted by addition of ADP-Glo™ Reagent. Next, Kinase Detection Reagent is added to convert ADP to ATP and allow the newly synthesized ATP to be measured using a luciferase/luciferin reaction. The luminescence is proportional to the produced ADP and consequently to the kinase activity. The ADP-Glo™ Kinase Assay was performed in a 384 well plate format as follows.
# (§5) Kinase Detection Reagent Preparation: The Kinase Detection Buffer was thawed at room temperature (RT). If a precipitate was present, the buffer was incubated at 37° C. with constant swirling for 15 minutes to dissolve the precipitate or the precipitate was removed from the buffer by carefully pipetting the supernatant from the bottle. After equilibrating both the Kinase Detection Buffer and Kinase Detection Substrate to room temperature, the entire volume of Kinase Detection Buffer was transferred into the bottle containing Kinase Detection Substrate to reconstitute the lyophilized substrate, followed by gentile mixing to obtain a homogeneous solution.
# (§6) Kinase Reaction Buffer Preparation: Kinase reaction buffer was prepared freshly before each experiment.
# (§7) ADP-Glo Reagents Preparation. Three mixes were prepared on ice before running the assay: • Mix 1—containing ROCK1 or ROCK2 in Kinase Reaction Buffer (1×) • Mix 2—containing S6K peptide in Kinase Reaction Buffer (1×) • Mix 3—containing ATP in Kinase Reaction Buffer (1×)
# (§8) The ratios of reagent volumes in the assay were 1:1:2 of kinase reaction to ADP-Glo™ Reagent to Kinase Detection Reagent. For 384-well plates, volumes were: 5 μl of kinase reaction, 5 μl of ADP-Glo™ Reagent and 10 μl of Kinase Detection Reagent.
# (§9) Generating a standard curve for conversion of ATP to ADP. To estimate the amount of ADP produced in the kinase reaction, a standard curve that represents the luminescence corresponding to the conversion of ATP to ADP was prepared based on the ATP concentration used in the kinase reaction. These conversion curves represent the amounts of ATP and ADP available in a reaction at the specified conversion percentage ranging from 100% conversion to 0% conversion. The standard samples used to generate an ATP-to-ADP conversion curve are created by combining the appropriate volumes of ATP and ADP stock solutions.
# (§10) Each plate contained a positive control (1 μM Comp. A for ROCK2 and 1 μM RKI-1447 for ROCK1); a vehicle control (1% DMSO); a blank control (kinase reaction buffer (1×)); a low control (substrate and ATP, without kinase); and an autophosphorylation control (kinase and ATP, without substrate). Test and reference compounds were diluted in 100% DMSO to obtain 10 mM stock solutions. Each compound was tested in 8-serial dilutions in duplicate. The final concentration of DMSO in the reaction was 1% (up to 50 nL).
# (§11) 5 μl/well Kinase Reaction Buffer (1×) was dispensed to blank control wells. 2 μl/well Kinase Reaction Buffer (1×) was dispensed to control without protein (low control) and without substrate (autophosphorylation) wells. The plate was sealed with adhesive film followed by a short spin (1 min, 1000 rpm).
# (§12) 2 μl/well kinase (2.5×) solution was dispensed into relevant wells of the assay plate. The plate was sealed with adhesive film followed by a short spin (1 min, 1000 rpm).
# (§13) The plate was sealed with adhesive film followed by a short spin (1 min, 1000 rpm).
# (§14) 1 μl/well ATP (5×) solution was dispensed into relevant wells of the assay plate. The final volume of reaction was […]. The plate was sealed with adhesive film followed by a short spin (1 min, 1000 rpm).
# [9] = target: ROCK2 (Homo sapiens (Human), UniProt O75116); test: ADP-Glo kinase assay, ROCK2; type: biochemical; details: 40 μM ATP, 170 μM S6K substrate, 120 min
# Sequence of ROCK2 (O75116 whole entry): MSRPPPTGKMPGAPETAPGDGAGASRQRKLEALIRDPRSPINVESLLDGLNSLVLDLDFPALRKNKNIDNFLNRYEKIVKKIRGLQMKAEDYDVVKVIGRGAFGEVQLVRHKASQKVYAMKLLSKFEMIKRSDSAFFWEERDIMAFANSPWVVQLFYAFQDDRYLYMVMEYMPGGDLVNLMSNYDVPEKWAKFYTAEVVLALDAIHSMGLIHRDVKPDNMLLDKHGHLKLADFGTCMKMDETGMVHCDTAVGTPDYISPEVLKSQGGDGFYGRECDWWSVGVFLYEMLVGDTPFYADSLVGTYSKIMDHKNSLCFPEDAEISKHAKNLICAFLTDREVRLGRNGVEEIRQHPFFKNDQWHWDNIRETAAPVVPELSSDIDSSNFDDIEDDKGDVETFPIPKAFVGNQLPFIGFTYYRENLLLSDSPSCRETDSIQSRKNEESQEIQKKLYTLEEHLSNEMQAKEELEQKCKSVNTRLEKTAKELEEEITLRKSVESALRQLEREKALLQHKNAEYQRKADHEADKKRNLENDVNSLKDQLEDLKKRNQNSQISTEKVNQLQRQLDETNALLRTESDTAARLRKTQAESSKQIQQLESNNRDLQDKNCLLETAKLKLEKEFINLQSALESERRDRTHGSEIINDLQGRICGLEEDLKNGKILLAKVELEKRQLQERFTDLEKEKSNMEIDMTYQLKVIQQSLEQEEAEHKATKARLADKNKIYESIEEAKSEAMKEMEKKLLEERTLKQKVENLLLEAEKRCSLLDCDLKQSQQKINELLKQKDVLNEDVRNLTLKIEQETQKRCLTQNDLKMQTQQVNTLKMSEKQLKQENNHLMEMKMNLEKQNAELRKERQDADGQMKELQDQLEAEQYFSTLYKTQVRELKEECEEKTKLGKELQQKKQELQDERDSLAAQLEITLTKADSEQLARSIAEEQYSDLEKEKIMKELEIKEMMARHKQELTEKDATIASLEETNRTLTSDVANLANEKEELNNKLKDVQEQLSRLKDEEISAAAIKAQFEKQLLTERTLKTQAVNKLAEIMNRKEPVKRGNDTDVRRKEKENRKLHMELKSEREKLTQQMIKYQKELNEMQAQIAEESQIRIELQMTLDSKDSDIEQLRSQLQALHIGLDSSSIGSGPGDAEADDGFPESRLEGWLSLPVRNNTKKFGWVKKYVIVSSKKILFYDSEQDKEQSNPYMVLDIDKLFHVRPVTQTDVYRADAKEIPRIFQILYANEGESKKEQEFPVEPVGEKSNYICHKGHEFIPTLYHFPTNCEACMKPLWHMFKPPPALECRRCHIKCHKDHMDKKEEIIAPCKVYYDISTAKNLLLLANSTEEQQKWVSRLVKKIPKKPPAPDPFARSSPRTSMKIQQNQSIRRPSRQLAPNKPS
# Experimental: as §4, §5, §6, §7, §8, §9, §10, §11, §12, §13, §14
# [10] = test system: mouse 3T3-L1 pre-adipocytes; details: cited from earlier work
# [11] = test system: human adipose-derived stem cells; details: cited from earlier work
Structure (SMILES),IC50 [8],IC50 [9],also measured
"Cn1c(C(=O)N2CC(F)(F)C2)cc2ccc(-c3nccc(Nc4ccc(-c5c[nH]nn5)cc4)n3)cc21 [Example 2, 2-[2-(3,3-difluoroazetidine-1-carbonyl)-1-methyl-1H-indol-6-yl]-N-[4-(1H-1,2,3-triazol-4-yl)phenyl]pyrimidin-4-amine]",> 50000 nM,,pCofilin [1]: down-regulate pCofilin; solubility kinetic [2]: 2.69 µg/mL; TGF-β-induced Col3A1 gene expression [3]: down-regulate dose-dependently; TGF-β-induced fibronectin gene expression [3]: down-regulate dose-dependently; TGF-β-induced α-SMA gene expression [3]: down-regulate dose-dependently; adipogenesis [4]: down-regulate adipogenesis in a dose-dependent manner; STAT3 phosphorylation induced by Th17-skewing activation [5]: down-regulate STAT3 phosphorylation; EC50 [6]: 764 nM; Col1A protein production in supernatants [7]: down-regulate dose-dependently
CN(C)CCn1c(C(=O)N2CC(F)(F)C2)cc2ccc(-c3nccc(Nc4ccc(-c5cn[nH]n5)cc4)n3)cc21 [Example 15],281 nM,,
O=C(c1nc2ccc(-c3nccc(Nc4ccc(-c5cn[nH]n5)cc4)n3)cc2[nH]1)N1CC(F)(F)C1 [Example 22],25200 nM,,
O=C(c1cc2c(s1)CN(c1nccc(Nc3ccc(-c4cnc[nH]4)cc3)n1)CC2)N1CC2C(C1)C2(F)F (centres unmarked) [Example 23],8910 nM,334 nM,
"Cn1c(C(=O)N2CC(F)(F)C2)cc2ccc(-c3nccc(Nc4ccc(-c5cnc[nH]5)cc4)n3)cc21 [Example 1, 2-[2-(3,3-difluoroazetidine-1-carbonyl)-1-methyl-1H-indol-6-yl]-N-[4-(1H-imidazol-5-yl)phenyl]pyrimidin-4-amine]",> 50000 nM,,pCofilin [1]: down-regulate pCofilin; solubility kinetic [2]: 2.2 µg/mL; TGF-β-induced Col3A1 gene expression [3]: down-regulate dose-dependently; TGF-β-induced fibronectin gene expression [3]: down-regulate dose-dependently; TGF-β-induced α-SMA gene expression [3]: down-regulate dose-dependently; adipogenesis [4]: down-regulate adipogenesis in a dose-dependent manner; STAT3 phosphorylation induced by Th17-skewing activation [5]: down-regulate STAT3 phosphorylation; EC50 [6]: 838 nM; Col1A protein production in supernatants [7]: down-regulate dose-dependently
O=C(c1cc2c(s1)CN(c1nccc(Nc3ccc(-c4cnn[nH]4)cc3)n1)CC2)N1CC2C(C1)C2(F)F (centres unmarked) [Example 24],1220 nM,207 nM,
Cn1c(C(=O)N2CCC(F)(F)C2)cc2ccc(-c3nccc(Nc4ccc(-c5cnc[nH]5)cc4)n3)cc21 [Example 7],2100 nM,,
CN(C)CCn1c(C(=O)N2CCC(F)(F)C2)cc2ccc(-c3nccc(Nc4ccc(-c5cn[nH]n5)cc4)n3)cc21 [Example 18],23200 nM,,
CN(C)C(=O)Cn1c(C(=O)N2CC(F)(F)C2)cc2ccc(-c3nccc(Nc4ccc(-c5cnc[nH]5)cc4)n3)cc21 [Example 4],> 50000 nM,,
C[C@H](NC(=O)c1cc2ccc(-c3nccc(Nc4ccc(-c5cnc[nH]5)cc4)n3)cc2n1CC1COC1)C(F)(F)F [Example 10],4000 nM,,
O=C(c1cc2ccc(-c3nccc(Nc4ccc(-c5cn[nH]n5)cc4)n3)cc2o1)N1CC(F)(F)C1 [Example 19],2010 nM,10000 nM,
"O=C(c1cc2c(s1)CN(c1nccc(Nc3ccc(-c4c[nH]nn4)cc3)n1)CC2)N1CC(F)(F)C1 [Example 3′, 2-[2-(3,3-difluoroazetidine-1-carbonyl)-4H,5H,6H,7H-thieno[2,3-c]pyridin-6-yl]-N-[4-(1H-1,2,3-triazol-4-yl)phenyl]pyrimidin-4-amine]",2730 nM,961 nM,
Cn1c(C(=O)N2CCCC2)cc2ccc(-c3nccc(Nc4ccc(-c5cnc[nH]5)cc4)n3)cc21 [Example 12],2280 nM,10000 nM,
"Cn1c(C(=O)N2CC(F)(F)C2)cc2ccc(-c3nccc(Nc4ccc(-c5cn[nH]c5)cc4)n3)cc21 [Comp. A, reference compound]",3210 nM,2.29 nM,solubility kinetic [2]: < 1.9 µg/mL
O=C(c1cc2c(s1)CN(c1nccc(Nc3ccc(-c4cnc[nH]4)cc3)n1)CC2)N1CCC(F)(F)C1 [Example 25],6850 nM,,
CC(C)NC(=O)COc1cccc(-c2nc(Nc3ccc4[nH]ncc4c3)c3ccccc3n2)c1 [KD025],,,adipocyte differentiation [10]: down-regulated adipocyte differentiation; adipocyte differentiation [11]: down-regulated adipocyte differentiation
CN(C)CCn1c(C(=O)N2CCC(F)(F)C2)cc2ccc(-c3nccc(Nc4ccc(-c5cnc[nH]5)cc4)n3)cc21 [Example 13],4290 nM,10000 nM,
Cn1c(C(=O)N2CCCC2)cc2ccc(-c3nccc(Nc4ccc(-c5cn[nH]n5)cc4)n3)cc21 [Example 16],792 nM,,
C[C@H](NC(=O)c1cc2ccc(-c3nccc(Nc4ccc(-c5cnc[nH]5)cc4)n3)cc2n1C)C(F)(F)F [Example 9],746 nM,,
C[C@H](NC(=O)c1cc2ccc(-c3nccc(Nc4ccc(-c5cnc[nH]5)cc4)n3)cc2n1CCN(C)C)C(F)(F)F [Example 8],10700 nM,,
